Reference: US7759510B2, “Platinum complexes and methods of use” (University of South Florida, priority 2003, dated 2010)
Entries after “also recorded” stand apart in the source; their conditions may differ. Like-named read-outs stand apart in the source and are kept apart here.

Key:
Stat3 [1] = assay: Stat3 signaling, growth inhibition and apoptosis in cells that contain constitutive Stat3 activity; assay type: cell-based; settings: Src-transformed mouse fibroblasts, human tumor cells of the breast, prostate, mouse melanoma cells
Description: Methods of the invention comprise inhibiting function of a STAT by contacting a cell expressing a STAT with a platinum complex of the invention wherein the complex is taken in or otherwise provided inside the cell. Platinum complexes of the invention can physically interact with the DNA-binding domain of Stat3 and thereby disrupts its ability to bind to DNA.

[2] = Reduction of CPA-7 platinum complex by glutathione (UV kinetics at 226 nm); assay type: physicochemical; settings: 20 μm CPA-7 in PBS/20% DMSO with 10 mM glutathione
Method: FIGS. 5A-C show inertness of CPA-7 platinum complex to reduction by glutathione. 20 μm CPA-7 in PBS/20% DMSO with […]. […] Reduction is attributed to room light.
FIGS. 5A-C show the inertness of CPA-7 to glutathione reduction. In the figures, 20 μm CPA-7 was added in PBS/20% DMSO with 10 mM glutathione. The readings were initiated in late evening where data points were collected every 10 minutes at the lambda max for CPA-7, 226 nm. […] Data was collected on a Varian Cary 50 fitted with a fibreoptic probe in the kinetics mode. The Cary 50 uses a pulsed Xenon lamp with discontinuous irradiation between readings. A 25-mL volumetric flask was used for the solution with a magnetic stirring bar at slow speed.

Stat3 [3] = target: T1, Stat3 (Mus musculus, UniProt P42227); assay: EMSA of nuclear extracts, Stat3 DNA-binding activity to hSIE probe; assay type: biochemical; settings: in vitro
T1 construct: Nuclear extracts were prepared from NIH3T3/hEGFR cell that overexpress human epidermal growth factor (EGF) receptor and stimulated with EGF; endogenous in cells; host or cells: NIH3T3/hEGFR fibroblasts, EGF-stimulated (6 ng/ml, 15 min), nuclear extract
Method: Nuclear Extract Preparation and Analysis by EMSA of HK-Designated Platinum Complexes.
Nuclear extracts were prepared from NIH3T3/hEGFR cell that overexpress human epidermal growth factor (EGF) receptor and stimulated with EGF (6 ng/ml) for 15 min. Nuclear extracts were pre-incubated with compounds for 30 min at room temperature prior to incubation with radiolabeled probe. The ^32P-labeled oligonucleotide probe used is hSIE (high affinity sis-inducible element, m67 variant, 5′-[…]-3′) (SEQ ID NO:1) that binds both Stat1 and Stat3.
Other platinum (IV) complexes were evaluated for inhibitory activity against STAT DNA-binding in vitro.

A549 cells = assay: MTT assay, percent survival of A549 cells; assay type: cell-based; settings: A549; for IC50: Table 2, read-out: Calculated IC 50 (uM concentration)
Method: 1. Prepare a suspension of A549 cells at 2×10^5 cells per mL in supplemented DMEM/F12 growth medium.
2. Plate 2×10^4 cells per well in a 96 well cell culture plate by adding 100 μL of stock suspension to each well.
3. For each platinum compound (already in solution), prepare a readily usable stock solution in DMEM/F12 medium.
4. For each compound generate triplicate trials of 0, 10, 20, 30, 40, 50, 60, and 70 μM concentration. This is achieved in situ by adding appropriate volumes of stock solution to each well along with the volume of untreated medium necessary to generate the desired concentration in a final volume of 200 μL.
5. Gently agitate plates to mix contents. Incubate at 37° C., 7% CO2 for 45 hours.
6. Add 20 μL of 5 mg/mL MTT solution (in PBS) to each well.
7. Gently agitate plates to mix contents and incubate an additional 3 hours to allow product development.
8. Remove plates from incubator and agitate to cause settling of formazan product.
9. Aspirate out liquid contents of each well using needle and syringe and discard.
10. Add 200 μL DMSO to each well to dissolve formazan product.
11. Agitate plates until all of the formazan product is in solution and no purple crystals remain on the bottom surface of the wells.
12. Read the absorbance of each well at […] using Varian software for Cary 50 UV-vis Spectrophotometer with fiber optic probe accessory.
(§1) MTT assays are used for the quantitative determination of cellular proliferation and activation and for the quantitation of in vitro tumor cell sensitivity to anti-cancer compounds. The assay is based on the cleavage of the yellow tetrazolium salt MTT into purple colored formazan by metabolically active cells. Solubilized formazan product can be photometrically quantitated using an ELISA plate reader. A decrease in the number of living cells results in a decrease in total metabolic activity which leads to a decrease in color formation. Platinum complexes of the present invention were tested in MTT assays using A549 cells to determine anti-cancer cell activity. […] FIGS. 1, 2, and 4 show percent survival versus platinum complex concentration in graphical form.
as §1, with “FIGS. 8, 9,” for “FIGS. 1, 2,”, “and 11” for “and 4”

[4] = linear trend from percent survival vs. concentration data of Table 1

T1 sequence (P42227 whole entry): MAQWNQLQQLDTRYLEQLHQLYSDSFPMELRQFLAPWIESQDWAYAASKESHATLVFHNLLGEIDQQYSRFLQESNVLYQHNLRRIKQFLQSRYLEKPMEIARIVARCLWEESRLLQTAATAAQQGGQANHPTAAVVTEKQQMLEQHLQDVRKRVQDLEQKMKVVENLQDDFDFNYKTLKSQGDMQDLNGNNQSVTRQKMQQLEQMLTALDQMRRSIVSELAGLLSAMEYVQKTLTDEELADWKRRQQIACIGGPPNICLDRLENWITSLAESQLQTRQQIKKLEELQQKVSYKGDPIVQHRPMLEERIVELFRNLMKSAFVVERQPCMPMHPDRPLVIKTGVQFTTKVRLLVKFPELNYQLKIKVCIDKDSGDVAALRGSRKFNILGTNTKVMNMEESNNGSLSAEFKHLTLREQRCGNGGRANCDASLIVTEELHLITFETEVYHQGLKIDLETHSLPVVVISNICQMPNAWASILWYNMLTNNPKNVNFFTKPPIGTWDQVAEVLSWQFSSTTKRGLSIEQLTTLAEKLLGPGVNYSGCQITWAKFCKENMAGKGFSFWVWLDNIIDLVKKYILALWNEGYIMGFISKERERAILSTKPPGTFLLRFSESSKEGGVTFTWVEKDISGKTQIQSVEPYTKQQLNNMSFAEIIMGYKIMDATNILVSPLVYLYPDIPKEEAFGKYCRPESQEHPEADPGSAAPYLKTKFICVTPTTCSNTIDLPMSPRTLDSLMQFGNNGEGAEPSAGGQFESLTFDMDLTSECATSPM

SMILES	Disruption of Stat3 activity / ability to bind its consensus binding sequence (Stat3 [3])	Average Absorbance (A549 cells; Table 1, 10 μM)	Percent Survival (A549 cells; Table 1, 10 μM) [%]	Average Absorbance (A549 cells; Table 1, 20 μM)	Percent Survival (A549 cells; Table 1, 20 μM) [%]	Average Absorbance (A549 cells; Table 1, 30 μM)	Percent Survival (A549 cells; Table 1, 30 μM) [%]	Average Absorbance (A549 cells; Table 1, 40 μM)	Percent Survival (A549 cells; Table 1, 40 μM) [%]	Average Absorbance (A549 cells; Table 3, 10 μM)	Percent Survival (A549 cells; Table 3, 10 μM) [%]	Average Absorbance (A549 cells; Table 3, 20 μM)	Percent Survival (A549 cells; Table 3, 20 μM) [%]	Average Absorbance (A549 cells; Table 3, 30 μM)	Percent Survival (A549 cells; Table 3, 30 μM) [%]	Average Absorbance (A549 cells; Table 3, 40 μM)	Percent Survival (A549 cells; Table 3, 40 μM) [%]	Average Absorbance (A549 cells; Table 3, 50 μM)	Percent Survival (A549 cells; Table 3, 50 μM) [%]	Average Absorbance (A549 cells; Table 3, 60 μM)	further results
O=[N+]([O-])[Pt]1([Cl])([Cl])([Cl])[NH]CC[NH]1 [CPA-1]	–	–	–	–	–	–	–	–	–	–	–	–	–	–	–	–	–	–	–	–	Cell growth inhibition and apoptosis (Stat3 [1]): induce cell growth inhibition and apoptosis; Stat3 signaling function (Stat3 [1]): abrogate Stat3 signaling function
[NH2][Pt]([NH2])([Cl])([Cl])([Cl])[N+](=O)[O-] [CPA-7]	strongly disrupt Stat3 activity	–	–	–	–	–	–	–	–	–	–	–	–	–	–	–	–	–	–	–	Reduction by glutathione (GSH) [2]: stability against GSH reduction; also recorded: not appreciably reduced by GSH; Sensitivity to light (reduction by room light) [2]: sensitivity to light; Cell growth inhibition and apoptosis (Stat3 [1]): induce cell growth inhibition and apoptosis; Stat3 signaling function (Stat3 [1]): abrogate Stat3 signaling function
CCN(CC)c1ccc2c(-c3ccccc3C(=O)O)c3ccc(=[N+](CC)CC)cc-3[o+]([Pt]([NH2])([NH2])([Cl])([Cl])[N+](=O)[O-])c2c1.[Cl-] [CPA-46]	strongly disrupt Stat3 activity	2.4032	101.7831	2.2978	97.3190	2.2671	96.0188	1.8618	78.8531	2.5773	105.5017	2.4118	98.7269	1.9637	80.3840	1.2044	49.3021	0.6282	25.7153	0.6446	Average Absorbance (A549 cells; Table 1, 50 μM): 1.0285; Percent Survival (A549 cells; Table 1, 50 μM): 43.5602%; Average Absorbance (A549 cells; Table 1, 60 μM): 0.7041; Percent Survival (A549 cells; Table 1, 60 μM): 29.8208%; IC50 (A549 cells; [4]): 52.9 µM; Percent Survival (A549 cells; Table 3, 60 μM): 26.3867%; Average Absorbance (A549 cells; Table 3, 70 μM): 0.6165; Percent Survival (A549 cells; Table 3, 70 μM): 25.2364%
Nc1cccc2c(=O)[nH][n]([Pt]([NH2])([NH2])([Cl])([Cl])[N+](=O)[O-])c(=O)c12 [CPA-51]	strongly disrupt Stat3 activity	2.4925	105.5652	2.5760	109.1017	2.3214	98.3186	2.0616	87.3152	2.4744	101.2895	2.4868	101.7970	2.0998	85.9552	1.4758	60.4118	0.9352	38.2824	0.7084	Average Absorbance (A549 cells; Table 1, 50 μM): 1.3869; Percent Survival (A549 cells; Table 1, 50 μM): 58.7396%; Average Absorbance (A549 cells; Table 1, 60 μM): 0.8807; Percent Survival (A549 cells; Table 1, 60 μM): 37.3004%; Average Absorbance (A549 cells; Table 1, 70 μM): 1.0819; Percent Survival (A549 cells; Table 1, 70 μM): 45.8219%; IC50 (A549 cells; [4]): 61.2 µM; Percent Survival (A549 cells; Table 3, 60 μM): 28.9983%; Average Absorbance (A549 cells; Table 3, 70 μM): 0.7058; Percent Survival (A549 cells; Table 3, 70 μM): 28.8919%
[NH2][Pt]([NH2])([Cl])([Cl])([N]1C(=O)CC(C(=O)O)NC1=O)[N+](=O)[O-] (centres unmarked) [CPA-55]	strongly disrupt Stat3 activity	2.4481	103.6847	2.3731	100.5082	2.3268	98.5473	1.3780	58.3626	2.4587	100.6468	2.4875	101.8257	1.6902	69.1883	0.6503	26.6200	0.4894	20.0336	0.7082	IC50 (A549 cells; extrapolated from incomplete data (10-40 uM; CPA-31 10-30 μM), outside the measured range): 54.2 µM; Percent Survival (A549 cells; Table 3, 60 μM): 28.9901%; Average Absorbance (A549 cells; Table 3, 70 μM): 0.5733; Percent Survival (A549 cells; Table 3, 70 μM): 23.4680%
